In PMC7363588, “Mapping of the FGF14:Nav1.6 complex interface reveals FLPK as a functionally active peptide modulating excitability” (Physiological Reports, 2020):
Entries after “also recorded” stand apart in the source; their conditions may differ. Peptide text beside a SMILES is read from it.

Tested on: medium spiny neurons (MSNs) in the nucleus accumbens
Test: Brain slice patch-clamp: intrinsic excitability and passive properties of MSNs
Format: cell-based, male C57BL6/J mice
Method: Brain slices from male C57BL6/J mice aged 28–45 days were prepared to contain the nucleus accumbens (NAc). Mice were anesthetized with Isoflurane (Baxter, Deerfield, IL) and brains extracted following decapitation. Brains were sliced with a vibratome (Leica Microsystems, Wetzlar, Germany) to achieve 300 μm coronal slices. Brains sliced in extracellular salts; consisting of the following (mM): Tris‐HCl 72, Tris‐Base18, NaH2PO4 1.2, KCl 2.5, HEPES 20, sucrose 20, NaHCO3 25, glucose 25, MgSO4 10, Na‐pyruvate 3, Na‐ascorbate 5 and CaCl2 0.5 (Sigma‐Aldrich, St. Louis, MO); 300–310 mOsm, pH 7.4 and was continuously oxygenated (mixture of 95%/5% O2/CO2). Slices were then placed in a 32°C recovery chamber with freshly prepared tris‐based aCSF for 15 min before transfer to a 32°C chamber of standard aCSF consisting of the following extracellular salts (mM): NaCl 123.9, KCl 3.1, glucose 10, MgCl2 1, CaCl2 2, NaHCO3 24, and NaH2PO4 1.16 (Sigma‐Aldrich, St. Louis, MO); 300–310 mOsm, pH 7.4 and continuously oxygenated (mixture of 95%/5% O2/CO2). Finally, slices were equilibrated at RT for at least 45 min. DMSO and/or FLPK were added to standard aCSF to achieve a bath concentration of 0.1% DMSO and 50 μM FLPK. Brain slices were incubated in a separate chamber with standard aCSF containing 0.1% DMSO (control) or 50 μM FLPK and continuously oxygenated for 30 min. Somatic recordings from NAc visually identified medium spiny neurons (MSNs) in standard aCSF were carried out at 31°C using borosilicate glass pipettes (resistance of 3–5 MΩ) filled with an internal solution containing (mM): D‐gluconate (potassium salt) 145, MgCl2 2, EGTA 0.1, Na2ATP 2, and HEPES 10 (pH 7.2; 290 mOsm). Either an Axopatch 200B or a Multiclamp 700B amplifier was used to perform whole‐cell patch clamp experiments. For the Axopatch 200B, a digidata 1,200 analog–digital interface and pClamp 9 software with filtering at 20 kHz and digitizing at 5 kHz were used for data acquisition and stimulation. For the Multiclamp 700B, a digidata 1,350 analog‐digital interface and pClamp 10.9 with filtering at 20 kHz and digitizing at 5 kHz were used for data acquisition and stimulation. First a giga‐seal was formed and the cell membrane ruptured after which MSNs were held in […] for 1 min to measure resting membrane potential. Next, MSNs were held in current clamp mode to assess cell activity. Evoked action potentials with a range of current injections from 10 pA to 220 pA with 800 ms every 10 pA were measured and number of action potentials, instantaneous frequency, and other electrical parameters were determined. Average instantaneous firing frequency (IFF) is defined as the average of all reciprocal interspike intervals (ms) at a particular current step. Cells with a current threshold above 180 pA, a resting membrane potential above −60 mV, and an input resistance outside the range of 70–250 MΩ were excluded. To isolate persistent Na^+ current (I NaP) in whole‐cell voltage‐clamp recordings, we used a modified aCSF containing 20 mM tetraethylammonium chloride (TEA) and 0.3 mM CdCl2. The voltage‐dependence of I NaP was determined using standard protocols (Yue, Remy, Su, Beck, & Yaari, 2005). Membrane capacitances and Rseries were compensated electronically. Series resistances (Rs) before compensation were in the range of 5–20 MΩ and were routinely corrected by 75%–85%. Data obtained from a given cell were rejected if Rs was larger than 20 MΩ or changed by > 20% during the course of the experiment. Membrane capacitance was calculated using the equation: capacitance = membrane time constant/input resistance (Meitzen, Weaver, Brenowitz, & Perkel, 2009). The membrane input resistance was measured by a series of 600 ms hyperpolarizing current steps from −50 to 0 pA, step 10 pA with 1 s interval. The slope of the current‐voltage curve was designated as the membrane input resistance. […]

With `CC(=O)N[C@@H](Cc1ccccc1)C(=O)N[C@@H](CC(C)C)C(=O)N1CCC[C@H]1C(=O)N[C@@H](CCCCN)C(N)=O` [FLPK] (Ac-FLPK-NH2) the “effect on MSN firing and passive properties” value (50 µM FLPK vs 0.1% DMSO) was “significantly increased the number of evoked action potentials and the instantaneous firing frequency; also recorded: no changes in several other electrophysiological parameters including membrane potential and input resistance; also recorded: increase in the total number of action potentials as well as instantaneous firing frequency”, the “Tau (τ), membrane time constant” value (50 µM FLPK, 30 min incubation, mean ± SEM, n = 5–12, DMSO 16.1 ± 2.1, p = .157) was 11.9 ± 1.6 ms and the Cm (50 µM FLPK, 30 min incubation, mean ± SEM, n = 5–12, DMSO 90.2 ± 14.5, p = .521) was 80.1 ± 7.6 pF. The Ithr (50 µM FLPK, 30 min incubation, mean ± SEM, n = 5–12, DMSO 110 ± 14.2, p = .221) was 78 ± 18.3 pA, the Rin (50 µM FLPK, 30 min incubation, mean ± SEM, n = 5–12, DMSO 119.1 ± 10.3, p = .088) was 147.2 ± 11.3 MΩ and the Vthr (50 µM FLPK, 30 min incubation, mean ± SEM, n = 5–12, DMSO −40.5 ± 1.1, p = .422) was −38.7 ± 2.2 mV. The RMP (50 µM FLPK, 30 min incubation, mean ± SEM, n = 5–12, DMSO −75.3 ± 1.5, p = .125) was −79.7 ± 2.6 mV, the “number of evoked action potentials” value (50 µM FLPK, current step 180 pA, n = 7, DMSO 14.9 ± 2.3, n = 14, p < .016) was 23.7 ± 1.2 and the instantaneous firing frequency (50 µM FLPK, current step 180 pA, n = 7, DMSO 19.7 ± 2.6 Hz, n = 14, p < .0395) was 28.6 ± 2.1 Hz.
